Measured values taken from BindingDB's records for doi:10.1016/S0960-894X(01)81215-4 (1993).
Where a SMILES comes first, the peptide text is derived from it. [ ]: non-standard residue; d: D form.

Experiment: Displacement of [125I]-ET-1 from Endothelin A receptor of rabbit renal artery vascular smooth muscle cells

IC50: 650 nM
Compound: CC[C@H](C)[C@H](NC(=O)[C@H](CC(=O)O)NC(=O)[C@H](CCC(=O)O)NC(=O)[C@@H](Cc1ccccc1)NC(C)=O)C(=O)N[C@H](C(=O)N[C@@H](Cc1c[nH]c2ccccc12)C(=O)O)[C@@H](C)CC [(S)-4-((R)-2-Acetylamino-3-phenyl-propionylamino)-4-((S)-2-carboxy-1-{(S)-1-[(S)-(S)-1-((S)-1-carboxy-2-(S)-1H-indol-3-yl-ethylcarbamoyl)-2-methyl-butylcarbamoyl]-2-methyl-butylcarbamoyl}-ethylcarbamoyl)-butyric acid] (Ac-[dF]EDIIW-OH)
